This is an account of results in ChEMBL document CHEMBL3991601, “The target landscape of clinical kinase drugs” (Science, 2017).

By Kd is commonly meant the equilibrium constant for the complex coming apart.

Active and inactive are the calls of the source. Some results are limits rather than exact numbers.

Assay [1] addresses G protein-coupled receptor kinase 6 (Homo sapiens, UniProt P43250).
For assay [2], the target named is Serine/threonine-protein kinase Nek7 (Homo sapiens, UniProt Q8TDX7).
For assay [3], the target named is T1, ATP-dependent RNA helicase DHX30 (Homo sapiens, UniProt Q7L2E3).
T1 sequence (Q7L2E3 whole entry): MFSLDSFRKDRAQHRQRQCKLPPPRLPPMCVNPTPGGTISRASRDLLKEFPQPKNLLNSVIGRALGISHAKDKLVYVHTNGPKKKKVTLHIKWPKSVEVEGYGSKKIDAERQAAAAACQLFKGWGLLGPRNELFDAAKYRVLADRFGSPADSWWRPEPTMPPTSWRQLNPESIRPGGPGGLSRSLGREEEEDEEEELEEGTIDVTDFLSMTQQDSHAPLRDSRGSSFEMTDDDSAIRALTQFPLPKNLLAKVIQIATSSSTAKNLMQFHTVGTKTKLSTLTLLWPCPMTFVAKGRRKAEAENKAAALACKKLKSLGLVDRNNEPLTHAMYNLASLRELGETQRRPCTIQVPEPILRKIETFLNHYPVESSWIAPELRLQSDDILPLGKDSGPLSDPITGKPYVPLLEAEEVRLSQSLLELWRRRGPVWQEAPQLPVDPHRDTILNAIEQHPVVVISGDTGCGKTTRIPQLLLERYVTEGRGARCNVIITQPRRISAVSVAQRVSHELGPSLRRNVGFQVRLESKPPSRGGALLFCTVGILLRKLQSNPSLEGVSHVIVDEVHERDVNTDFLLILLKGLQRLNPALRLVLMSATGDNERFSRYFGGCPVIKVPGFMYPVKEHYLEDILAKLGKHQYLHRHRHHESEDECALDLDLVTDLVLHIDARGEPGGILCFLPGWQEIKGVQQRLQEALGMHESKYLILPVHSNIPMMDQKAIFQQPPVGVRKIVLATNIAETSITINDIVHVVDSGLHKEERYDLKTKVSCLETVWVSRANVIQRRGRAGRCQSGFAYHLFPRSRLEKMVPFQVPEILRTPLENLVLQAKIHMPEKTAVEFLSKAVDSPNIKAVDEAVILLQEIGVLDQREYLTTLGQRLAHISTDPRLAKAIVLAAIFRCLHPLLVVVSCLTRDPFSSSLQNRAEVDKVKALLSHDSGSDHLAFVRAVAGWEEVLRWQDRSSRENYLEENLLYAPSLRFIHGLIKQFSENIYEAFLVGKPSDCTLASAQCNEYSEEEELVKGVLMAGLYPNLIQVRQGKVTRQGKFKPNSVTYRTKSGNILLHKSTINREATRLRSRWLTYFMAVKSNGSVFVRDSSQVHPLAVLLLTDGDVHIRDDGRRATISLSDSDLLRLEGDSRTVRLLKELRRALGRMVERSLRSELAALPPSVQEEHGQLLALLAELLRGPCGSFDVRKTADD

Assay [4] concerns the target Uncharacterized aarF domain-containing protein kinase 5 (Homo sapiens, UniProt Q3MIX3).
Assay [5] addresses Hepatocyte growth factor receptor (Homo sapiens, UniProt P08581).
Assay [6] deals with Dual specificity testis-specific protein kinase 2 (Homo sapiens, UniProt Q96S53).
Dual specificity testis-specific protein kinase 2, sequence (Q96S53 whole entry): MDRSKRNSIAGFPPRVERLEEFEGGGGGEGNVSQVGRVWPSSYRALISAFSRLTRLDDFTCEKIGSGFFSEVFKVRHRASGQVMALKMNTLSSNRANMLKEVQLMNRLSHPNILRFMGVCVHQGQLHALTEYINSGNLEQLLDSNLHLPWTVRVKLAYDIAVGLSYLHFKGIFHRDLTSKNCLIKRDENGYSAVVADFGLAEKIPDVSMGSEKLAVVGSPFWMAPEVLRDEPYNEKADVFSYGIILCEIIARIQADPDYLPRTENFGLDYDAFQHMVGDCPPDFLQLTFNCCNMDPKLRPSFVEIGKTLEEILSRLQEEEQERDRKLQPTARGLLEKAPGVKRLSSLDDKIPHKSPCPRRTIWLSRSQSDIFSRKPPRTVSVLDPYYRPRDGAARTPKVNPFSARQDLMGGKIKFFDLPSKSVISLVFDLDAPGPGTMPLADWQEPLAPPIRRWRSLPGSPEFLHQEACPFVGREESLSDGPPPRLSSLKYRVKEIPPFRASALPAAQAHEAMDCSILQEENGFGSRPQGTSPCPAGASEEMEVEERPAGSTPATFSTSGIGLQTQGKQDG
Assay [7] deals with Proto-oncogene tyrosine-protein kinase receptor Ret (Homo sapiens, UniProt P07949).
Proto-oncogene tyrosine-protein kinase receptor Ret, sequence (P07949 whole entry): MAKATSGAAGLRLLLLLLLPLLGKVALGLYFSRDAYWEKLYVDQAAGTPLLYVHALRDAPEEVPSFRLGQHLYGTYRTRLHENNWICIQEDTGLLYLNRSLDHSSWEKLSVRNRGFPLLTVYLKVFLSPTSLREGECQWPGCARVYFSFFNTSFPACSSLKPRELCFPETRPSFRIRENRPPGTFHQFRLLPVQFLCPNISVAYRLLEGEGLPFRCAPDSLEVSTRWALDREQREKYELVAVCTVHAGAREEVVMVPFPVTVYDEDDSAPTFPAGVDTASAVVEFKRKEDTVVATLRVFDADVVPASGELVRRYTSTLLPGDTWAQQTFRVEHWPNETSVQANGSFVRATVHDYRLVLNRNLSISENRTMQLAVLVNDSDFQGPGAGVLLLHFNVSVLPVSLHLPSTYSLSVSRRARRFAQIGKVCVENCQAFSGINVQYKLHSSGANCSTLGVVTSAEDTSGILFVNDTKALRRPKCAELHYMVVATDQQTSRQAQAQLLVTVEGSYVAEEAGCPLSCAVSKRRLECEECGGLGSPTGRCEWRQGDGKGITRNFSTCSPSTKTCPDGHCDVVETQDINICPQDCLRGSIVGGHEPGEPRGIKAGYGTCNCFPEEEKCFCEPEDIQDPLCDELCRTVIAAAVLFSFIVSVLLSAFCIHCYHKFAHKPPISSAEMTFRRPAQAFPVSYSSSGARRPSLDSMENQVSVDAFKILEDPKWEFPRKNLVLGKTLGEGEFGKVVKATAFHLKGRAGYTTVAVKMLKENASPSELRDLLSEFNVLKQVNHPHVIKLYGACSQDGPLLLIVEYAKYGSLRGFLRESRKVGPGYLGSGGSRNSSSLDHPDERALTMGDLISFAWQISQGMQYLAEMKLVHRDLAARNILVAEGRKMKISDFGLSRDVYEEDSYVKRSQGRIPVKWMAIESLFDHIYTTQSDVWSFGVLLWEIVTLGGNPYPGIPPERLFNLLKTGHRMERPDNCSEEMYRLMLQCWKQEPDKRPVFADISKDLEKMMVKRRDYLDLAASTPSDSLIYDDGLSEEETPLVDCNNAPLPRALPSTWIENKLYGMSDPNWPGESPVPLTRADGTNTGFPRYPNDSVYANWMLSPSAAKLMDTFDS
For assay [8], the target named is Dual specificity protein kinase CLK4 (Homo sapiens, UniProt Q9HAZ1).
Dual specificity protein kinase CLK4, sequence (Q9HAZ1 whole entry): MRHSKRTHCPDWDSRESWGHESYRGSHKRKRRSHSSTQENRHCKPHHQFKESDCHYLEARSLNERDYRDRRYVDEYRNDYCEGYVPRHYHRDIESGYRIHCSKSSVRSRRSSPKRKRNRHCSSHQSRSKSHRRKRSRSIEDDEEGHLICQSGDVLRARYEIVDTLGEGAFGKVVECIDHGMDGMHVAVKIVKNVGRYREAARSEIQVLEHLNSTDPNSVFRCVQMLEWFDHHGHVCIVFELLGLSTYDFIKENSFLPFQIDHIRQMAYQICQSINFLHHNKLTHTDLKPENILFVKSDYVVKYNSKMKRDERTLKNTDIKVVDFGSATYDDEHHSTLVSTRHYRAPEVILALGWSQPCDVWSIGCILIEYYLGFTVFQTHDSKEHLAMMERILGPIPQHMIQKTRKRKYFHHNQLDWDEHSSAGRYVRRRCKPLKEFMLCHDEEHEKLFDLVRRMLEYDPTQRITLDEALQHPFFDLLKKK
Another assay deals with Myosin-10 (Homo sapiens, UniProt P35580).
Assay [9] concerns the target Dual specificity testis-specific protein kinase 1 (Homo sapiens, UniProt Q15569).
For assay [10], the target named is Serine/threonine-protein kinase PAK 6 (Homo sapiens, UniProt Q9NQU5).
Serine/threonine-protein kinase PAK 6, sequence (Q9NQU5 whole entry): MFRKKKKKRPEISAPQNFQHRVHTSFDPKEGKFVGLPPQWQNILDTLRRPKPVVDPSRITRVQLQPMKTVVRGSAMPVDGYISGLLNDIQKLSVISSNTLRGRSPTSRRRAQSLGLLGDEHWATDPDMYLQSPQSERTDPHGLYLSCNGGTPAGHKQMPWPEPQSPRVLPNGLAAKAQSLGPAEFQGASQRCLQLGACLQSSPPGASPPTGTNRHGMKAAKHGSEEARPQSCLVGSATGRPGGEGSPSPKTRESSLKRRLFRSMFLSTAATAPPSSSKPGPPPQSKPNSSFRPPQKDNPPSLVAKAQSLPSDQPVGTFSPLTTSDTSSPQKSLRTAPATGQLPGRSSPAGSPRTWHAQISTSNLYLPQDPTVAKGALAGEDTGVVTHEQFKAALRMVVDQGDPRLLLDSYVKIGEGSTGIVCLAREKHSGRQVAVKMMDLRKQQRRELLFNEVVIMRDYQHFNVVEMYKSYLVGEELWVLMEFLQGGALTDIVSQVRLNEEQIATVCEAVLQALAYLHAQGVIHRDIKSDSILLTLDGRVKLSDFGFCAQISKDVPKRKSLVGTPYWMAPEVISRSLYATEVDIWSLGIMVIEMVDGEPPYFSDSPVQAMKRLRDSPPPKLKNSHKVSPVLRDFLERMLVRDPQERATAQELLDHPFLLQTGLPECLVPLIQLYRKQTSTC
Assay [11] concerns the target DNA topoisomerase 2-alpha (Homo sapiens, UniProt P11388).
The target in assay [12] is Serine/threonine-protein kinase 24 (Homo sapiens, UniProt Q9Y6E0).
Assay [13] has as its target T2, Dual specificity protein kinase TTK (Homo sapiens, UniProt P33981).
T2 sequence (P33981 whole entry): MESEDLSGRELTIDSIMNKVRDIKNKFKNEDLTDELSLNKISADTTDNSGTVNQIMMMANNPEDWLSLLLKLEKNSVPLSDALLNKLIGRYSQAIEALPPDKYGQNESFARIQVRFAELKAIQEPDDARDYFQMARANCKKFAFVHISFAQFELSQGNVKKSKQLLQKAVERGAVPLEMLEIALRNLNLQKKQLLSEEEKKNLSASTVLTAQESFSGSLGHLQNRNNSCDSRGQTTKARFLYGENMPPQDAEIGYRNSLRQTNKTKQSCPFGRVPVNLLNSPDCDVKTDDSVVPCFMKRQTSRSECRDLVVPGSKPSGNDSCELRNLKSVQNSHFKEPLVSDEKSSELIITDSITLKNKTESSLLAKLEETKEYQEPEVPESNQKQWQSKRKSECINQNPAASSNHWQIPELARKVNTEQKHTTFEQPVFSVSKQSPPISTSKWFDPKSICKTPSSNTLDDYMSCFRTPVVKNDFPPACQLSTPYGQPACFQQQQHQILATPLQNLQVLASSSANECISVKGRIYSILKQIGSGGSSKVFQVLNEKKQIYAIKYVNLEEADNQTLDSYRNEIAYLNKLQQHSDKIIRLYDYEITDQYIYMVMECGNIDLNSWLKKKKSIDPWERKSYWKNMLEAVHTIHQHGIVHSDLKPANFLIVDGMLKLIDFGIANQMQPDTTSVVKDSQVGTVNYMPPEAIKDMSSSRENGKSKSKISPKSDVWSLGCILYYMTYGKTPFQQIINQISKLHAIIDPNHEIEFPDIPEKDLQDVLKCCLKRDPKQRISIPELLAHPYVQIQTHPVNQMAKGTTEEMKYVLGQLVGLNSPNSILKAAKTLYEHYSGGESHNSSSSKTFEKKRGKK

The target in assay [14] is PAS domain-containing serine/threonine-protein kinase (Homo sapiens, UniProt Q96RG2).
Also: in the data inactive means no Kd found up to 30 µM.

Uncharacterized aarF domain-containing protein kinase 5, sequence (Q3MIX3 whole entry, the tested form may be a part): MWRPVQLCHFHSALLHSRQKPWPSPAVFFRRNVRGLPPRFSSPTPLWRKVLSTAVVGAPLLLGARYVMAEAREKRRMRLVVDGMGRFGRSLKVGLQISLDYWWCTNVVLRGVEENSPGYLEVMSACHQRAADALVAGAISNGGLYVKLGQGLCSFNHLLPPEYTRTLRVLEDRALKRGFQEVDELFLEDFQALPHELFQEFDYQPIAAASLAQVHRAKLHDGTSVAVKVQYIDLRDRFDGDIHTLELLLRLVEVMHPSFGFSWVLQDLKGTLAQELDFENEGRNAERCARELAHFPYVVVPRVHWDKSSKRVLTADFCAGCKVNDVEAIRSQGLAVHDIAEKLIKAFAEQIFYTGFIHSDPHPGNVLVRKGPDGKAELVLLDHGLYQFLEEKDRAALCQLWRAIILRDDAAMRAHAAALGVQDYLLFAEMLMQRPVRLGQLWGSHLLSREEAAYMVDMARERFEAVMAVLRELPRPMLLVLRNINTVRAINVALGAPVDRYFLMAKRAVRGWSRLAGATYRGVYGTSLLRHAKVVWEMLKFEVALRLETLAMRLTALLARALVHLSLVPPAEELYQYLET
DNA topoisomerase 2-alpha, sequence (P11388 whole entry): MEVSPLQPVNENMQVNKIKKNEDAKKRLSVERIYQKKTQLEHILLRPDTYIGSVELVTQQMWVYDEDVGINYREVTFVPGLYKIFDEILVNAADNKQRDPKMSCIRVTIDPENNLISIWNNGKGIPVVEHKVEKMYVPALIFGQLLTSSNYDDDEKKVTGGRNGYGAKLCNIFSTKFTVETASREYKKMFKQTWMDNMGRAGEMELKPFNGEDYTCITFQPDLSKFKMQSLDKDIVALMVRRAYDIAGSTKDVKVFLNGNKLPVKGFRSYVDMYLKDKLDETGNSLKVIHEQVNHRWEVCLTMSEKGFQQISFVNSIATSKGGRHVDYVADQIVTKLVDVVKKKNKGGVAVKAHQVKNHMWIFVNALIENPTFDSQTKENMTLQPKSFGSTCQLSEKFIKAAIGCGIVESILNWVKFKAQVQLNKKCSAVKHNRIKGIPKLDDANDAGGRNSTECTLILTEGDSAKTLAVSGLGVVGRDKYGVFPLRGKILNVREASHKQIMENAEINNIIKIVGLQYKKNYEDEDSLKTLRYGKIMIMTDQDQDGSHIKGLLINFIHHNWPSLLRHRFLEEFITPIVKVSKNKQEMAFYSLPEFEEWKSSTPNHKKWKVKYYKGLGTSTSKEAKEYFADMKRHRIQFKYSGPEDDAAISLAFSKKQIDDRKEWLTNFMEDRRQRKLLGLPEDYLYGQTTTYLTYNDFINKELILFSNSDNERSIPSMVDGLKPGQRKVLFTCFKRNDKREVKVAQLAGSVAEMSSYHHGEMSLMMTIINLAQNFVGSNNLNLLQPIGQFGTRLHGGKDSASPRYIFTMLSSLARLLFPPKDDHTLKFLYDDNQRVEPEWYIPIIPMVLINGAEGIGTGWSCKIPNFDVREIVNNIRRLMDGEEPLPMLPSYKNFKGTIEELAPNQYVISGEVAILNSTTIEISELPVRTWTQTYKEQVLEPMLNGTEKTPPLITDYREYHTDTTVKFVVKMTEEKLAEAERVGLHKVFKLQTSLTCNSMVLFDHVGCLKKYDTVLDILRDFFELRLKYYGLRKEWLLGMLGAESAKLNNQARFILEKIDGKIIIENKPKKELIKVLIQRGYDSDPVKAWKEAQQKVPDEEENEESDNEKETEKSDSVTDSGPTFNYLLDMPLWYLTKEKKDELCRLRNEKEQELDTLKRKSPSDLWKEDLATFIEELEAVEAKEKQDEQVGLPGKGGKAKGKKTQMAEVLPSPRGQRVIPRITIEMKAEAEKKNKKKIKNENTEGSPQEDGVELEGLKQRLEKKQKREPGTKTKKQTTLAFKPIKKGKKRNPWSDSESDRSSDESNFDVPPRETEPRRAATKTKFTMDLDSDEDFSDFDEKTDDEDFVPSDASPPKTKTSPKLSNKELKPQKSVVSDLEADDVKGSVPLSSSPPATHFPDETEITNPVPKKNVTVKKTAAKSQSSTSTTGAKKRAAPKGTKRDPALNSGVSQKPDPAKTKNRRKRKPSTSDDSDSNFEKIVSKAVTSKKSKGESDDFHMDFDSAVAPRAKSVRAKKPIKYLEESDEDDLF

Turning to `COc1cc2ncnc(Nc3ccc(F)c(Cl)c3)c2cc1NC(=O)/C=C/CN1CCCCC1` [DACOMITINIB ANHYDROUS], the Kd in [1], in assay [2], in assay [3], in assay [4], in [5] and in assay [6] was > 30 µM (inactive) throughout. Moreover, the Kd in assay [7] is > 30 µM (inactive).
Take `COCCN1CCN(Cc2ccc(-c3n[nH]c4c3C(=O)c3c(NC(=O)NN5CCOCC5)cccc3-4)cc2)CC1` [RGB-286638]: the Kd in [3] was > 30 µM (inactive); in assay [8], 0.002 µM; on Myosin-10, > 30 µM (inactive); in [9], > 30 µM (inactive); in assay [10] it was > 30 µM (inactive); in assay [4], > 30 µM (inactive). Also, the Kd in assay [5], in [11] and in assay [7] was > 30 µM (inactive) in each case.
For the compound `C=CCN(/C=C1/C(=O)O[C@H](COC)[C@@]2(C)C1=C(O)C(=O)C1=C2[C@H](OC(C)=O)C[C@]2(C)C(=O)CC[C@@H]12)CC=C` [SONOLISIB], the Kd (in assay [2]; at Myosin-10; in assay [9]; in [10]; in assay [5]; in assay [12]) was > 30 µM (inactive) in each case. Also, the Kd in assay [7] was > 30 µM (inactive).
In the case of `CN1CCN(c2nc(C3=C(c4c[nH]c5ccccc45)C(=O)NC3=O)c3ccccc3n2)CC1` [SOTRASTAURIN], the Kd in [1], in [8], in assay [9], in assay [10], in assay [4] and in [5] was > 30 µM (inactive) in each case. The Kd in assay [13], in assay [12], in assay [11] and in assay [7] was > 30 µM (inactive) in each case.
`CNC(=O)c1ccc(Nc2ncc(C(F)(F)F)c(NCc3nccnc3N(C)S(C)(=O)=O)n2)cc1` [DEFACTINIB]: the Kd in [1], in assay [3], in [9], in assay [10], in assay [4] and in assay [5] was > 30 µM (inactive) in each case. The Kd in assay [13] is > 30 µM (inactive); in assay [6], > 30 µM (inactive); in assay [12] it was > 30 µM (inactive); in assay [11], > 30 µM (inactive); in [7], 27.5 µM (active).
On to `CCOc1ccn(-c2ccc(F)cc2)c(=O)c1C(=O)Nc1ccc(Oc2ccnc(N)c2Cl)c(F)c1` [BMS-777607], for which the Kd was > 30 µM (inactive) in assay [2], > 30 µM (inactive) in [3], > 30 µM (inactive) on Myosin-10 and 0.011 µM (active) in [5].
Turning to `Cc1cc(-c2cc(OC(=O)c3ccccc3)ccc2Cl)cc2nnc(Nc3ccc(OCCN4CCCC4)cc3)nc12` [TG100-801], the Kd (in assay [2]; in assay [3]; at Myosin-10; in [9]; in assay [14]; in assay [4]) was > 30 µM (inactive) throughout. In addition, the Kd in assay [5] was > 30 µM (inactive); in assay [13] it was > 30 µM (inactive); in [6] it was > 30 µM (inactive); in assay [7], 1.03 µM (active).
For `CN(c1ncccc1CNc1nc(Nc2ccc3c(c2)CC(=O)N3)ncc1C(F)(F)F)S(C)(=O)=O` [PF-00562271], the Kd (in assay [8]; on Myosin-10; in assay [9]; in assay [10]; in assay [14]; in assay [4]) was > 30 µM (inactive) in each case.
For `CC(C)(O)CC(=O)NCCn1ccc2ncnc(Nc3ccc(Oc4cccc(C(F)(F)F)c4)c(Cl)c3)c21` [TAK-285], the Kd in [2], in [3], in assay [9], in assay [12] and in assay [7] was > 30 µM (inactive) in each case.
Consider `C=CC(=O)Nc1cc(Nc2nccc(-c3cn(C)c4ccccc34)n2)c(OC)cc1N(C)CCN(C)C` [OSIMERTINIB], for which the Kd (in assay [1]; in [2]; in assay [3]; in assay [8]; on Myosin-10; in [6]) was > 30 µM (inactive) in each case. In addition, the Kd in assay [11] and in [7] was > 30 µM (inactive) throughout.
Regarding `N#CCNC(=O)c1ccc(-c2ccnc(Nc3ccc(N4CCOCC4)cc3)n2)cc1` [MOMELOTINIB], the Kd in assay [2], in assay [14], in [13] and in assay [11] was > 30 µM (inactive) each time.
As to `O=S(=O)(c1cccc2c(O)nccc12)N1CCCNCC1` [HYDROXYFASUDIL], the Kd (in assay [1]; in [2]; in assay [8]; on Myosin-10; in assay [14]; in assay [4]) was > 30 µM (inactive) each time. The Kd in assay [5], in assay [13], in [12], in assay [11] and in assay [7] was > 30 µM (inactive) in each case.
Take `O=C(O)c1ccc2c(c1)nc(Nc1cccc(Cl)c1)c1ccncc12` [SILMITASERTIB]: the Kd in [2], in [8], in [9], in assay [5], in assay [13] and in assay [6] was > 30 µM (inactive) each time. In addition, the Kd in assay [12] and in [7] was > 30 µM (inactive) each time.
